# Assay results from patent US9187490B2, “Dimeric IAP inhibitors” (TetraLogic Pharmaceuticals Corporation, priority 2005, dated 2015).
# Target: T1, XIAP-BIR3 (Homo sapiens, UniProt P98170)
# T1 construct: 40 nM of XIAP-BIR3 for 15 min at RT
# Test: XIAP BIR-3 fluorescence polarization binding assay
# Details: 5 nM AbuRPF-K(5-Fam)-NH2, 40 nM XIAP-BIR3, 15 min RT, pH 7.5; read-out: KD Range
# Protocol: Following incubation, the polarization values (mP) were measured on a Victor^2V using a 485 nm excitation filter and a 520 nm emission filter. IC50 values were determined from the plot using nonlinear least-squares analysis using GraphPad Prism.
# T1 sequence (P98170 241-356 limits assumed): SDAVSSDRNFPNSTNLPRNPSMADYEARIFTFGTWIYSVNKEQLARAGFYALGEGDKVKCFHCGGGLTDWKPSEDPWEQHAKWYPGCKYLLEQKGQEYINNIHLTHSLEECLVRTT
row,Kd [nM],Structure (SMILES)
1,< 100,CN[C@@H](C)C(=O)N[C@H](C(=O)N1C[C@@H](O)C[C@H]1Cc1c(-c2ccc(-c3[nH]c4cc(F)ccc4c3C[C@@H]3C[C@H](O)CN3C(=O)[C@@H](NC(=O)[C@H](C)NC)C(C)C)cc2)[nH]c2cc(F)ccc12)C(C)C [Entry 29]
2,< 100,CN[C@@H](C)C(=O)N[C@H](C(=O)N1CCC[C@H]1Cc1c(-c2ccc(-c3[nH]c4cc(F)ccc4c3C[C@@H]3CCCN3C(=O)[C@@H](NC(=O)[C@H](C)NC)[C@@H](C)OCc3ccccc3)cc2)[nH]c2cc(F)ccc12)[C@@H](C)O [Entry 32]
3,< 100,CN[C@@H](C)C(=O)N[C@H](C(=O)N1CCC[C@H]1Cc1c(-c2ccc(-c3[nH]c4cc(F)ccc4c3C[C@@H]3CCCN3C(=O)[C@@H](NC(=O)[C@H](C)NC)[C@@H](C)OCc3ccccc3)cc2)[nH]c2cc(F)ccc12)[C@@H](C)OCc1ccccc1 [Entry 33]
4,100 to 1000,CN[C@@H](C)C(=O)N[C@H](C(=O)N1C[C@H](O)C[C@H]1Cc1c(-c2ccc(-c3[nH]c4ccccc4c3C[C@@H]3C[C@@H](O)CN3C(=O)[C@@H](NC(=O)[C@H](C)NC)C(C)(C)C)cc2)[nH]c2ccccc12)C(C)(C)C [Entry 36]
5,100 to 1000,CN[C@@H](C)C(=O)N[C@H](C(=O)N1C[C@H](O)C[C@H]1Cc1c(-c2ccc(-c3[nH]c4ccccc4c3C[C@@H]3C[C@@H](O)CN3C(=O)[C@@H](NC(=O)[C@H](C)NC)C(C)C)cc2)[nH]c2ccccc12)C(C)C [Entry 37]
6,< 100,C[C@H](N)C(=O)N[C@H](C(=O)N1CCC[C@H]1Cc1c(-c2ccc(-c3[nH]c4cc(F)ccc4c3C[C@@H]3CCCN3C(=O)[C@@H](NC(=O)[C@H](C)N)C3CCCCC3)cc2)[nH]c2cc(F)ccc12)C1CCCCC1 [Entry 39]
7,100 to 1000,CN[C@@H](C)C(=O)N[C@H](C(=O)N1C[C@@H](O)C[C@H]1Cc1c(-c2ccc(-c3[nH]c4ccc(F)cc4c3C[C@@H]3C[C@H](O)CN3C(=O)[C@@H](NC(=O)[C@H](C)NC)C(C)C)cc2)[nH]c2ccc(F)cc12)C(C)C [Entry 40]
8,< 100,CN[C@@H](C)C(=O)N[C@H](C(=O)N1CCC[C@H]1Cc1c(-c2ccc(-c3c(C[C@@H]4CCCN4C(=O)[C@@H](NC(=O)[C@H](C)NC)C(C)C)c4ccc(F)cc4n3CCOC)cc2)n(CCOC)c2cc(F)ccc12)C(C)C [Entry 52]
9,< 100,CN[C@@H](C)C(=O)N[C@H](C(=O)N1CCC[C@H]1Cc1c(-c2ccc(-c3c(C[C@@H]4CCCN4C(=O)[C@@H](NC(=O)[C@H](C)NC)C(C)(C)C)c4cc(F)ccc4n3CCO)cc2)n(CCO)c2ccc(F)cc12)C(C)(C)C [Entry 54]
10,< 100,CN[C@@H](C)C(=O)N[C@H](C(=O)N1CCC[C@H]1Cc1c(-c2ccc(-c3c(C[C@@H]4CCCN4C(=O)[C@@H](NC(=O)[C@H](C)NC)C(C)C)c4cc(F)ccc4n3CCO)cc2)n(CCO)c2ccc(F)cc12)C(C)C [Entry 55]
11,< 100,CN[C@@H](C)C(=O)N[C@H](C(=O)N1CCC[C@H]1Cc1c(-c2ccc(-c3c(C[C@@H]4CCCN4C(=O)[C@@H](NC(=O)[C@H](C)NC)C(C)C)c4ccc(F)cc4n3C)cc2)n(C)c2cc(F)ccc12)C(C)C [Entry 57]
12,100 to 1000,CN[C@H](C)C(=O)N[C@H](C(=O)N1CCC[C@H]1Cc1c(-c2ccc(-c3c(C[C@@H]4CCCN4C(=O)[C@@H](NC(=O)[C@@H](C)NC)C(C)(C)C)c4ccc(F)cc4n3CCO)cc2)[nH]c2cc(F)ccc12)C(C)(C)C [Entry 71]

# Further lines, the molecule ahead of its results:
row,Structure (SMILES),Kd [nM]
1,CN[C@@H](C)C(=O)N[C@H](C(=O)N1C[C@@H](O)C[C@H]1Cc1c(-c2ccc(-c3[nH]c4cc(F)ccc4c3C[C@@H]3C[C@H](O)CN3C(=O)[C@@H](NC(=O)[C@H](C)NC)C(C)(C)C)cc2)[nH]c2cc(F)ccc12)C(C)(C)C [Entry 30],< 100
2,CN[C@@H](C)C(=O)N[C@H](C(=O)N1C[C@@H](O)C[C@H]1Cc1c(-c2ccc(-c3[nH]c4ccccc4c3C[C@@H]3C[C@H](O)CN3C(=O)[C@@H](NC(=O)[C@H](C)NC)C(C)(C)C)cc2)[nH]c2ccccc12)C(C)(C)C [Entry 34],< 100
3,CN[C@@H](C)C(=O)N[C@H](C(=O)N1CCC[C@H]1Cc1c(-c2ccc(-c3[nH]c4ccc(F)cc4c3C[C@@H]3CCCN3C(=O)[C@@H](NC(=O)[C@H](C)NC)C(C)C)cc2)[nH]c2ccc(F)cc12)C(C)C [Entry 35],< 100
4,CN[C@@H](C)C(=O)N[C@H](C(=O)N1CCC[C@H]1Cc1c(-c2ccc(-c3[nH]c4cc(F)ccc4c3C[C@@H]3CCCN3C(=O)[C@@H](NC(=O)[C@H](C)NC)C3CCCCC3)cc2)[nH]c2cc(F)ccc12)C1CCCCC1 [Entry 38],< 100
5,CN[C@@H](C)C(=O)N[C@H](C(=O)N1C[C@@H](O)C[C@H]1Cc1c(-c2ccc(-c3[nH]c4ccc(F)cc4c3C[C@@H]3C[C@H](O)CN3C(=O)[C@@H](NC(=O)[C@H](C)NC)C(C)(C)C)cc2)[nH]c2ccc(F)cc12)C(C)(C)C [Entry 41],< 100
6,CN[C@@H](C)C(=O)N[C@H](C(=O)N1CCC[C@H]1Cc1c(-c2ccc(-c3c(C[C@@H]4CCCN4C(=O)[C@@H](NC(=O)[C@H](C)N)[C@@H](C)O)c4ccc(F)cc4n3CCO)cc2)n(CCO)c2cc(F)ccc12)[C@@H](C)O [Entry 43],< 100
7,CN[C@@H](C)C(=O)N[C@H](C(=O)N1CCC[C@H]1Cc1c(-c2ccc(-c3c(C[C@@H]4CCCN4C(=O)[C@@H](NC(=O)[C@H](C)NC)[C@@H](C)O)c4ccc(F)cc4n3CCO)cc2)n(CCO)c2cc(F)ccc12)[C@@H](C)O [Entry 44],< 100
8,CN[C@@H](C)C(=O)N[C@H](C(=O)N1CCC[C@H]1Cc1c(-c2ccc(-c3c(C[C@@H]4CCCN4C(=O)[C@@H](NC(=O)[C@H](C)N)[C@@H](C)O)c4ccc(F)cc4n3CCOC(C)=O)cc2)n(CCOC(C)=O)c2cc(F)ccc12)[C@@H](C)O [Entry 45],< 100
9,CN[C@@H](C)C(=O)N[C@H](C(=O)N1CCC[C@H]1Cc1c(-c2ccc(-c3c(C[C@@H]4CCCN4C(=O)[C@@H](NC(=O)[C@H](C)NC)C(C)C)c4ccc(F)cc4n3CCO)cc2)n(CCO)c2cc(F)ccc12)C(C)C [Entry 46],< 100
10,CN[C@@H](C)C(=O)N[C@H](C(=O)N1CCC[C@H]1Cc1c(-c2ccc(-c3c(C[C@@H]4CCCN4C(=O)[C@@H](NC(=O)[C@H](C)NC)C(C)C)c4ccc(F)cc4n3CCOC(C)=O)cc2)n(CCOC(C)=O)c2cc(F)ccc12)C(C)C [Entry 47],< 100
11,CN[C@@H](C)C(=O)N[C@H](C(=O)N1CCC[C@H]1Cc1c(-c2ccc(-c3c(C[C@@H]4CCCN4C(=O)[C@@H](NC(=O)[C@H](C)NC)C(C)(C)C)c4ccc(F)cc4n3CCOC(C)=O)cc2)n(CCOC(C)=O)c2cc(F)ccc12)C(C)(C)C [Entry 49],< 100
12,CN[C@@H](C)C(=O)N[C@H](C(=O)N1CCC[C@H]1Cc1c(-c2ccc(-c3c(C[C@@H]4CCCN4C(=O)[C@@H](NC(=O)[C@H](C)NC)[C@@H](C)O)c4ccc(F)cc4n3CCOC)cc2)n(CCOC)c2cc(F)ccc12)[C@@H](C)O [Entry 50],< 100
13,CN[C@@H](C)C(=O)N[C@H](C(=O)N1CCC[C@H]1Cc1c(-c2ccc(-c3c(C[C@@H]4CCCN4C(=O)[C@@H](NC(=O)[C@H](C)NC)C(C)(C)C)c4ccc(F)cc4n3CCOC)cc2)n(CCOC)c2cc(F)ccc12)C(C)(C)C [Entry 51],< 100
14,COCCn1c(-c2ccc(-c3c(C[C@@H]4CCCN4C(=O)[C@@H](NC(=O)[C@H](C)N)C(C)C)c4ccc(F)cc4n3CCOC)cc2)c(C[C@@H]2CCCN2C(=O)[C@@H](NC(=O)[C@H](C)N)C(C)C)c2ccc(F)cc21 [Entry 53],< 100
15,CN[C@@H](C)C(=O)N[C@H](C(=O)N1CCC[C@H]1Cc1c(-c2ccc(-c3c(C[C@@H]4CCCN4C(=O)[C@@H](NC(=O)[C@H](C)NC)[C@@H](C)O)c4cc(F)ccc4n3CCO)cc2)n(CCO)c2ccc(F)cc12)[C@@H](C)O [Entry 56],< 100
16,CN[C@@H](C)C(=O)N[C@H](C(=O)N1CCC[C@H]1Cc1c(-c2ccc(-c3c(C[C@@H]4CCCN4C(=O)[C@@H](NC(=O)[C@H](C)NC)[C@@H](C)O)c4ccc(F)cc4n3C)cc2)n(C)c2cc(F)ccc12)[C@@H](C)O [Entry 58],< 100
17,CN[C@@H](C)C(=O)N[C@H](C(=O)N1CCC[C@H]1Cc1c(-c2ccc(-c3c(C[C@@H]4CCCN4C(=O)[C@@H](NC(=O)[C@H](C)NC)C(C)(C)C)c4ccc(F)cc4n3C)cc2)n(C)c2cc(F)ccc12)C(C)(C)C [Entry 59],< 100
18,CN[C@@H](C)C(=O)N[C@H](C(=O)N1CCC[C@H]1Cc1c(-c2ccc(-c3c(C[C@@H]4CCCN4C(=O)[C@@H](NC(=O)[C@H](C)NC)C(C)C)c4ccc(F)cc4n3CCOC(C)=O)cc2)[nH]c2cc(F)ccc12)C(C)C [Entry 64],< 100
19,CN[C@@H](C)C(=O)N[C@H](C(=O)N1CCC[C@H]1Cc1c(-c2ccc(-c3c(C[C@@H]4CCCN4C(=O)[C@@H](NC(=O)[C@H](C)NC)C(C)C)c4ccc(F)cc4n3CCO)cc2)[nH]c2cc(F)ccc12)C(C)C [Entry 67],< 100

# Same assay, conditions: Example 4 series; read-out: KD Range
row,Kd [nM],Structure (SMILES)
1,< 100,CNC(C)C(=O)NC(C(=O)N1CCCC1Cc1c(-c2[nH]c3cc(F)ccc3c2CC2CCCN2C(=O)C(NC(=O)C(C)NC)C(C)O)[nH]c2cc(F)ccc12)C(C)O (stereo not shown) [Entry 72]
2,< 100,CN[C@@H](C)C(=O)N[C@H](C(=O)N1CCC[C@H]1Cc1c(-c2[nH]c3cc(F)ccc3c2C[C@@H]2CCCN2C(=O)[C@@H](NC(=O)[C@H](C)NC)C(C)C)[nH]c2cc(F)ccc12)C(C)C [Entry 73]
3,< 100,CN[C@@H](C)C(=O)N[C@H](C(=O)N1CCC[C@H]1Cc1c(-c2[nH]c3cc(F)ccc3c2C[C@@H]2CCCN2C(=O)[C@@H](NC(=O)[C@H](C)N)C(C)C)[nH]c2cc(F)ccc12)C(C)C [Entry 74]
4,< 100,CN[C@@H](C)C(=O)N[C@H](C(=O)N1CCC[C@H]1Cc1c(-c2[nH]c3ccc(F)cc3c2C[C@@H]2CCCN2C(=O)[C@@H](NC(=O)[C@H](C)NC)C(C)C)[nH]c2ccc(F)cc12)C(C)C [Entry 75]
5,100 to 1000,CN[C@@H](C)C(=O)NCC(=O)N1CCC[C@H]1Cc1c(-c2[nH]c3cc(F)ccc3c2C[C@@H]2CCCN2C(=O)CNC(=O)[C@H](C)NC)[nH]c2cc(F)ccc12 [Entry 76]
6,100 to 1000,CN[C@@H](C)C(=O)N[C@@H](C)C(=O)N1CCC[C@H]1Cc1c(-c2[nH]c3cc(F)ccc3c2C[C@@H]2CCCN2C(=O)[C@H](C)NC(=O)[C@H](C)NC)[nH]c2cc(F)ccc12 [Entry 77]
